From patent US8338565B2, “Macrocyclic compounds for inhibition of tumor necrosis factor alpha” (Ensemble Therapeutics Corporation, priority 2008, dated 2012) come the findings set out here.

In the first assay the target is T1, TNFα / TNFα receptor (TNFα R1/Fc) (Homo sapiens, UniProt P01375).
T1 construct: purchased R&D Systems
T1 sequence (P01375 77-233 limits assumed, species assumed): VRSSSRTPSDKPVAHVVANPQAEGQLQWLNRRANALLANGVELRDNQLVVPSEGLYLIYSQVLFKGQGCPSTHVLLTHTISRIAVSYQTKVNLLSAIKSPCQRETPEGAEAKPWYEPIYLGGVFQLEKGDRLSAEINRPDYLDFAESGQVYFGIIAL
As to the kind of experiment: Inhibition of binding of TNFα to the TNFα receptor (plate ELISA competition). The conditions noted are these: Activity (IC50, inhibition of TNFα binding to TNFα R1/Fc), Table 2. In a few lines:
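Plates were coated with TNFα at 15 nM. Test compound and 8.33 nM receptor-Fc (PBST, 2% DMSO) were first mixed in solution for 30 min at room temperature, then transferred to the plates for another 30 min. Competition was read by absorbance at 450 nm after HRP anti-human IgG Fc detection with TMB.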
A general note: In an ELISA, binding on a coated surface is turned into a signal by an enzyme label.
Regarding `O=C1COc2ccc(cc2)C[C@@H](C(=O)O)NC(=O)[C@H](CCc2ccccc2)NC(=O)[C@@H](Cc2ccc(-c3ccncc3)cc2)NC(=O)[C@H](Cc2cccs2)N1` [Compound 658], the IC50 was less than 10 µM.

Staying with this assay, now noted: Table 2; read-out: Activity (IC50, inhibition of TNFα binding to TNFα R1/Fc).
On to `O=C1COc2ccc(cc2)C[C@@H](C(=O)O)NC(=O)[C@H](Cc2c[nH]c3ccccc23)NC(=O)[C@@H](Cc2ccc(-c3ccccc3)cc2)NC(=O)[C@H](Cc2ccncc2)N1` [Compound 653], for which the IC50 is less than 10 µM.

On to `O=C1COc2ccc(cc2)C[C@@H](C(=O)O)NC(=O)[C@H](CCc2ccccc2)NC(=O)[C@@H](Cc2ccc(-c3ccc(F)cc3)cc2)NC(=O)[C@H](Cc2cccs2)N1` [Compound 655], for which the IC50 is less than 10 µM. Still for that read-out and setting: next, `O=C1COc2ccc(cc2)C[C@@H](C(=O)O)NC(=O)[C@H](CCc2ccccc2)NC(=O)[C@@H](Cc2ccc(-c3ccc(O)cc3)cc2)NC(=O)[C@H](Cc2cccs2)N1` [Compound 656]: less than 10 µM; `O=C1COc2ccc(cc2)C[C@@H](C(=O)O)NC(=O)[C@H](CCc2ccccc2)NC(=O)[C@@H](Cc2ccc(-c3ccccc3)cc2)NC(=O)[C@H](Cc2ccccn2)N1` [Compound 660]: less than 10 µM. As to `O=C1COc2ccc(cc2)C[C@@H](C(=O)O)NC(=O)[C@H](CCc2ccccc2)NC(=O)[C@@H](Cc2ccc(-c3ccncc3)cc2)NC(=O)[C@H](Cc2ccccn2)N1` [Compound 661], the IC50 was in the range of 30 to 100 µM. On the same count and under the same terms, the value for `O=C1COc2ccc(cc2)C[C@@H](C(=O)O)NC(=O)[C@H](CCc2ccccc2)NC(=O)[C@@H](Cc2ccc(-c3ccccc3)cc2)NC(=O)[C@H](Cc2cccnc2)N1` [Compound 662] was less than 10 µM; that for `O=C1COc2ccc(cc2)C[C@@H](C(=O)O)NC(=O)[C@H](CCc2ccccc2)NC(=O)[C@@H](Cc2ccc(-c3ccccn3)cc2)NC(=O)[C@H](Cc2cccnc2)N1` [Compound 663] was more than 100 µM.

In the case of `O=C1COc2ccc(cc2)C[C@@H](C(=O)O)NC(=O)[C@H](CCc2ccccc2)NC(=O)[C@@H](Cc2ccc(-c3ccccn3)cc2)NC(=O)[C@H](Cc2ccncc2)N1` [Compound 664], the IC50 was 30 to 100 µM. Still for that read-out and setting: the value for `O=C1COc2ccc(cc2)C[C@@H](C(=O)O)NC(=O)[C@H](CCc2ccccc2)NC(=O)[C@@H](Cc2ccc(-c3cccnc3)cc2)NC(=O)[C@H](Cc2ccncc2)N1` [Compound 665] was 10 to 30 µM; that for `O=C1COc2ccc(cc2)C[C@@H](C(=O)O)NC(=O)[C@H](CCc2ccccc2)NC(=O)[C@@H](Cc2ccc(-c3ccncc3)cc2)NC(=O)[C@H](Cc2ccncc2)N1` [Compound 666] was 10 to 30 µM. Still for that read-out and setting: the value for `O=C1COc2ccc(cc2)C[C@@H](C(=O)O)NC(=O)[C@H](CCc2ccccc2)NC(=O)[C@@H](Cc2ccc(-c3ccccn3)cc2)NC(=O)[C@H](Cc2ccccn2)N1` [Compound 667] was more than 100 µM; that for `O=C1COc2ccc(cc2)C[C@@H](C(=O)O)NC(=O)[C@H](CCc2ccccc2)NC(=O)[C@@H](Cc2ccc(-c3cccnc3)cc2)NC(=O)[C@H](Cc2cccnc2)N1` [Compound 668] was more than 100 µM. The same measure, in the same setting: next, `O=C1COc2ccc(cc2)C[C@H](C(=O)O)NC(=O)[C@H](CCc2ccccc2)NC(=O)[C@@H](Cc2ccc(-c3ccccc3)cc2)NC(=O)[C@H](Cc2cccs2)N1` [Compound 673]: less than 10 µM; `O=C1COc2ccc(cc2)C[C@H](C(=O)O)NC(=O)[C@H](Cc2ccccc2)NC(=O)[C@@H](Cc2ccc(-c3ccccc3)cc2)NC(=O)[C@H](Cc2cccs2)N1` [Compound 675]: more than 100 µM; `O=C1COc2ccc(cc2)C[C@@H](C(=O)O)NC(=O)[C@H](CCc2ccccc2)NC(=O)[C@@H](Cc2ccc(-c3ccccc3)cc2)NC(=O)[C@H](Cc2ccccc2F)N1` [Compound 677]: less than 10 µM. As for `O=C1COc2ccc(cc2)C[C@@H](C(=O)O)NC(=O)[C@H](CCc2ccccc2)NC(=O)[C@@H](Cc2ccc(-c3ccccc3)cc2)NC(=O)[C@H](Cc2ccc(F)cc2)N1` [Compound 679], the IC50 was less than 10 µM.

For the compound `COc1cccc(C[C@@H]2NC(=O)COc3ccc(cc3)C[C@@H](C(=O)O)NC(=O)[C@H](CCc3ccccc3)NC(=O)[C@@H](Cc3ccc(-c4ccccc4)cc3)NC2=O)c1` [Compound 680], the IC50 was less than 10 µM. Take `COc1ccc(C[C@@H]2NC(=O)COc3ccc(cc3)C[C@@H](C(=O)O)NC(=O)[C@H](CCc3ccccc3)NC(=O)[C@@H](Cc3ccc(-c4ccccc4)cc3)NC2=O)cc1` [Compound 681]: the IC50 is less than 10 µM. Regarding `O=C1COc2ccc(cc2)C[C@@H](C(=O)O)NC(=O)[C@H](CCc2ccccc2)NC(=O)[C@@H](Cc2ccc(-c3ccccc3)cc2)NC(=O)[C@H](Cc2ccc(-c3ccncc3)cc2)N1` [Compound 684], the IC50 was less than 10 µM. Regarding `O=C1COc2ccc(cc2)C[C@@H](C(=O)O)NC(=O)[C@H](CCc2ccccc2)NC(=O)[C@@H](Cc2ccc(-c3ccccc3)cc2)NC(=O)[C@H](Cc2ccc(OCc3ccccc3)cc2)N1` [Compound 685], the IC50 is less than 10 µM. On the same count and under the same terms, next, `O=C1COc2ccc(cc2)C[C@@H](C(=O)O)NC(=O)[C@H](CCc2ccccc2)NC(=O)[C@@H](Cc2ccc(-c3ccccc3)cc2)NC(=O)[C@H](Cc2ccc(O)cc2)N1` [Compound 686]: less than 10 µM; `O=C1COc2ccc(cc2)C[C@@H](C(=O)O)NC(=O)[C@H](CCc2ccccc2)NC(=O)[C@@H](Cc2ccc(-c3ccccc3)cc2)NC(=O)[C@H](Cc2ccco2)N1` [Compound 687]: less than 10 µM; `O=C1COc2ccc(cc2)C[C@@H](C(=O)O)NC(=O)[C@H](CCc2ccccc2)NC(=O)[C@@H](Cc2ccc(-c3ccccc3)cc2)NC(=O)[C@H](Cc2ccccc2C(F)(F)F)N1` [Compound 689]: less than 10 µM. With `O=C1COc2ccc(cc2)C[C@@H](C(=O)O)NC(=O)[C@H](CCc2ccccc2)NC(=O)[C@@H](Cc2ccc(-c3ccccc3)cc2)NC(=O)[C@H](Cc2cccc(C(F)(F)F)c2)N1` [Compound 690], the IC50 lay in the range of 10 to 30 µM. On the same count and under the same terms, next, `O=C1COc2ccc(cc2)C[C@@H](C(=O)O)NC(=O)[C@H](CCc2ccccc2)NC(=O)[C@@H](Cc2ccc(-c3ccccc3)cc2)NC(=O)[C@H](Cc2ccc(C(F)(F)F)cc2)N1` [Compound 691]: less than 10 µM; `Cc1ccc(C[C@@H]2NC(=O)COc3ccc(cc3)C[C@@H](C(=O)O)NC(=O)[C@H](CCc3ccccc3)NC(=O)[C@@H](Cc3ccc(-c4ccccc4)cc3)NC2=O)cc1` [Compound 692]: less than 10 µM.

On to `O=C1COc2ccc(cc2)C[C@@H](C(=O)O)NC(=O)[C@H](CCc2ccccc2)NC(=O)[C@@H](Cc2ccc(-c3ccccc3)cc2)NC(=O)[C@H](Cc2cn(-c3ccccc3)nn2)N1` [Compound 693], for which the IC50 was less than 10 µM.

Consider `O=C1COc2ccc(cc2)C[C@@H](C(=O)O)NC(=O)[C@H](CCc2ccccc2)NC(=O)[C@@H](Cc2ccc(-c3ccccc3)cc2)NC(=O)[C@H](Cc2cccc3ccccc23)N1` [Compound 694], for which the IC50 is less than 10 µM.

Take `O=C1COc2ccc(cc2)C[C@@H](C(=O)O)NC(=O)[C@H](CCc2ccccc2)NC(=O)[C@@H](Cc2ccc(-c3ccccc3)cc2)NC(=O)[C@H](Cc2ccc3ccccc3c2)N1` [Compound 695]: the IC50 was less than 10 µM. The same measure, in the same setting: next, `O=C1COc2ccc(cc2)C[C@@H](C(=O)O)NC(=O)[C@H](CCc2ccccc2)NC(=O)[C@@H](Cc2ccc(-c3ccccc3)cc2)NC(=O)[C@H](Cc2cscn2)N1` [Compound 696]: less than 10 µM; `O=C1COc2ccc(cc2)C[C@@H](C(=O)O)NC(=O)[C@H](CCc2ccccc2)NC(=O)[C@@H](Cc2ccc(-c3ccccc3)cc2)NC(=O)[C@H](Cc2ccc(Cl)cc2Cl)N1` [Compound 697]: less than 10 µM; `O=C1COc2ccc(cc2)C[C@@H](C(=O)O)NC(=O)[C@H](CCc2ccccc2)NC(=O)[C@@H](Cc2ccc(-c3ccccc3)cc2)NC(=O)[C@H](Cc2ccc(-c3ccc(F)cc3)cc2)N1` [Compound 698]: less than 10 µM. Same read-out and setting: next, `O=C1COc2ccc(cc2)C[C@@H](C(=O)O)NC(=O)[C@H](CCc2ccccc2)NC(=O)[C@@H](Cc2ccc(-c3ccccc3)cc2)NC(=O)[C@H](Cc2ccc(-c3ccc(Cl)cc3)cc2)N1` [Compound 702]: less than 10 µM. The same measure, in the same setting: the value for `Cn1cnc(C[C@@H]2NC(=O)COc3ccc(cc3)C[C@@H](C(=O)O)NC(=O)[C@H](CCc3ccccc3)NC(=O)[C@@H](Cc3ccc(-c4ccccc4)cc3)NC2=O)c1` [Compound 706] was 10 to 30 µM; that for `O=C1COc2ccc(cc2)C[C@@H](C(=O)O)NC(=O)[C@H](CCc2ccccc2)NC(=O)[C@@H](Cc2ccc(-c3ccccc3)cc2)NC(=O)[C@H](Cc2ccc(Cl)cc2)N1` [Compound 707] was less than 10 µM; that for `O=C1Nc2ccc(cc2)C[C@H](C(=O)N[C@@H](Cc2ccccc2)C(=O)O)NC(=O)[C@@H](Cc2ccccc2)NC(=O)[C@H](Cc2ccc(-c3ccccc3)cc2)NC(=O)[C@@H](Cc2cccs2)NC(=O)C2CC12` (some centres unmarked) [Compound 708] was less than 10 µM. For the compound `O=C(O)CCCNC(=O)[C@H]1Cc2ccc(cc2)OCC(=O)N[C@@H](Cc2c[nH]c3ccccc23)C(=O)N[C@H](Cc2ccc(-c3ccccc3)cc2)C(=O)N[C@@H](Cc2c[nH]c3ccccc23)C(=O)N1` [Compound 716], the IC50 was less than 10 µM. On the same count and under the same terms, next, `O=C(O)CCCNC(=O)[C@H]1Cc2ccc(cc2)OCC(=O)N[C@@H](Cc2ccncc2)C(=O)N[C@H](Cc2ccc(-c3ccccc3)cc2)C(=O)N[C@@H](Cc2c[nH]c3ccccc23)C(=O)N1` [Compound 717]: 10 to 30 µM. The same measure, in the same setting: the value for `O=C(O)CCCNC(=O)[C@@H]1Cc2ccc(cc2)OCC(=O)N[C@@H](Cc2c[nH]c3ccccc23)C(=O)N[C@H](Cc2ccc(-c3ccccc3)cc2)C(=O)N[C@@H](Cc2ccccc2F)C(=O)N1` [Compound 718] was less than 10 µM; that for `O=C(O)CCCNC(=O)[C@@H]1Cc2ccc(cc2)OCC(=O)N[C@@H](Cc2ccncc2)C(=O)N[C@H](Cc2ccc(-c3ccccc3)cc2)C(=O)N[C@@H](Cc2ccccc2F)C(=O)N1` [Compound 719] was less than 10 µM.
